# Read-outs that look alike come from different tables or passages of the source.
# What was measured:
# [1] = mouse, in vivo
# bacterial growth [2] = conditions: cited from earlier work
# TolC (E. coli) = TolC (E. coli) (Escherichia coli, UniProt P02930); conditions: isothermal titration calorimetry; cited from earlier work
# Francisella philomiragia = format: cell-based
# bacterial growth [3] = format: cell-based
# [4] = target: CorA of Salmonella typhimurium (Salmonella typhimurium, UniProt P0A2R8); conditions: cited from earlier work
# [5] = target: CorA of Methanococcus jannaschii (Methanocaldococcus jannaschii, UniProt Q58439); conditions: cited from earlier work
# [6] = system: S. typhimurium strain in which CorA was the only functional Mg2+ transporter; conditions: cited from earlier work
# MgtB Mg transporter = MgtB Mg transporter (Salmonella typhimurium, UniProt P22036); conditions: cited from earlier work
# lawn of E. coli = format: cell-based; conditions: 1.0 tet/0.78 Cohex and 2.0 tet/1.6 mg Cohex disk pairings, overnight at 37° C.
# [7] = system: Francisella tularensis subspecies Novicida; format: cell-based
# Sequence of CorA of Salmonella typhimurium (P0A2R8 whole entry): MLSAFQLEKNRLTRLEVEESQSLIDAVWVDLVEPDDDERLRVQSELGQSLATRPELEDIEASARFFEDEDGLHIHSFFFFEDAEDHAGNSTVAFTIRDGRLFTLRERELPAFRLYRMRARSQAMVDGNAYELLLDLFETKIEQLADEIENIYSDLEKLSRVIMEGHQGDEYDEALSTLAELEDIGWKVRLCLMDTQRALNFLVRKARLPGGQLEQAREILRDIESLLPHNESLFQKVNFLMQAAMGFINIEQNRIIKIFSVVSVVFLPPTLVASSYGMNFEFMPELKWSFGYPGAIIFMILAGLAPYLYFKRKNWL
# Sequence of MgtB Mg transporter (P22036 whole entry): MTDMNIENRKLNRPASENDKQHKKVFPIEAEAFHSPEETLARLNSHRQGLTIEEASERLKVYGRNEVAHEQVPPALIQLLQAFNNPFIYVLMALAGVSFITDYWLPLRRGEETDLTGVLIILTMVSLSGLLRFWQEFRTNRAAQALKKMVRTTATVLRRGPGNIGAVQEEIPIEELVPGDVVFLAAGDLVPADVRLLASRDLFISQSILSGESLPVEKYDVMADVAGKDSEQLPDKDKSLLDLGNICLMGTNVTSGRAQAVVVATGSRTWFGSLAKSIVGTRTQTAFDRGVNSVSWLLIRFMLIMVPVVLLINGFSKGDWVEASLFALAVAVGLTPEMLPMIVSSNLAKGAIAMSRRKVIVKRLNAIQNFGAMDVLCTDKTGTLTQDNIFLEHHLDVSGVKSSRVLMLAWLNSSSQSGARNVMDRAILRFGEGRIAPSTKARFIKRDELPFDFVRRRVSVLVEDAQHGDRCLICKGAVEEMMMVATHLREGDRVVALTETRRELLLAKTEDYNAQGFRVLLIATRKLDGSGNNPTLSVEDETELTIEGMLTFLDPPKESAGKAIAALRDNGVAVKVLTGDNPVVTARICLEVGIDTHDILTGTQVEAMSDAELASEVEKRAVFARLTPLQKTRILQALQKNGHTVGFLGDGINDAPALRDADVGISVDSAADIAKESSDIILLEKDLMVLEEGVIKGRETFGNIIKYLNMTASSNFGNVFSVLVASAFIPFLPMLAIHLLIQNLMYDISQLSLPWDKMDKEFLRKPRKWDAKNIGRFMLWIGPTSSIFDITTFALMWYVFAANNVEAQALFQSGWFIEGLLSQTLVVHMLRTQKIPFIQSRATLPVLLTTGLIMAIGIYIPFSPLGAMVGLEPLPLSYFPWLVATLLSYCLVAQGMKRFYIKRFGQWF
# Sequence of TolC (E. coli) (P02930 23-493): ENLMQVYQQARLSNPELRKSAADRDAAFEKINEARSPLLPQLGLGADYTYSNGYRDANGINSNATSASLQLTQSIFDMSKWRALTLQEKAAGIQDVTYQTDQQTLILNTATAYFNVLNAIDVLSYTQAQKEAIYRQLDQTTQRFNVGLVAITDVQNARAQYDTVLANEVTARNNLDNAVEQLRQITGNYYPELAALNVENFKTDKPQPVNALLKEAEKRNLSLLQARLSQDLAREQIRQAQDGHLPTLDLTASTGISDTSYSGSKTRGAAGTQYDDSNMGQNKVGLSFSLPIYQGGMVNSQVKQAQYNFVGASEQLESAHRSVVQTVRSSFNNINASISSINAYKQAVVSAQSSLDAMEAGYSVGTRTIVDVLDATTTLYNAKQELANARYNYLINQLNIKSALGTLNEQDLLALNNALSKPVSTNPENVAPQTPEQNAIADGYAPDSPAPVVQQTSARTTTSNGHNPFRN
# Sequence of CorA of Methanococcus jannaschii (Q58439 whole entry): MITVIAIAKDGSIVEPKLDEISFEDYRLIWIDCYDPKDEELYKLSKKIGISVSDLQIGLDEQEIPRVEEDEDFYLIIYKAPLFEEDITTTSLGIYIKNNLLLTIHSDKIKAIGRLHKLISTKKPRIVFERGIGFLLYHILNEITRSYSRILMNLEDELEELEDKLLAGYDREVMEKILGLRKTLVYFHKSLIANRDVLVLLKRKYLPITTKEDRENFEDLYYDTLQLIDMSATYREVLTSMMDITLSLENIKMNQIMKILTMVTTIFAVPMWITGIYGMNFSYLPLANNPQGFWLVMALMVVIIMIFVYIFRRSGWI
substance,measurement,setting,value
hexamminecobalt (III) chloride [Cohex],toxicity to mice,[1],not to be highly toxic
same,effect on bacterial growth,bacterial growth [2],prevents bacterial growth at micromolar concentrations
same,Cohex ions bound per trimeric TolC,TolC (E. coli),~1
same,kind of inhibition of the bacterial growth,Francisella philomiragia,bacteriostatic rather than bacteriocidal
same,effect of the presence of Cohex on potency of the antibiotic drugs,bacterial growth [3],increased the potency of the drugs up to about an order of magnitude
same,effect on bacterial growth,bacterial growth [3],no effect on bacterial growth
same,inhibition of 63Ni2+ uptake,[4],inhibited
same,Ki,"[4]; corresponding to the IC50, species not given",0.5 µM
same,inhibition of 63Ni2+ uptake,[5],inhibited
same,inhibition of growth,[6],inhibited the growth
same,CC50,BHK cells,~3200 µM
same,inhibition of alternate pathways of Mg2+ transport,MgtB Mg transporter,does not inhibit
same,"zone of inhibition, interaction with tetracycline",lawn of E. coli,synergistic effect
same,kind of inhibition of the bacterial growth,[7],bacteriostatic rather than bacteriocidal

# — patent publication US20100004187A1 (priority 2008, published 2010)
